Measurements taken from patent publication US8278309B2, “Synthetic mimetics of host defense and uses thereof” (priority 2008, dated 2012).
Entries after “also recorded” stand apart in the source; their conditions may differ. Where a name gives a salt, the structure may show the parent alone.

Columns and labels:
S. aureus (ATCC 13709) = experiment: Mouse thigh burden model; assay type: in vivo; details: for bacterial reduction vs inoculated control group: thighs at 25 hours
Description: Female 6-7-week old CD-1 mice were made neutropenic with cyclophosphamide (150 mg/kg, i.p.) on days 4 and 1 before i.m. inoculation with S. aureus (ATCC 13709). S. aureus inoculum was prepared by transferring colonies from 18-20-hour tryptic soy agar (TSA) cultures to sterile PBS. The density was adjusted to approximately 10^6 cfu/mL with the aid of a spectrophotometer, and the inoculum concentration was determined by the dilution plate count method. Mice were inoculated by injecting each posterior thigh with 0.1 mL of inoculum. Compound A was given to separate groups of mice (4 females/group) by i.v. bolus doses of 1 or 2 mg/kg/dose at 1 and 5, 1 and 9, or 1 and 13 hours post inoculation as shown in Table 5. A separate control group of 4 mice received the inoculum without antibiotic treatment. Compound A was dissolved 50%/50% v/v sterile USP purified water/PBS. Thighs were harvested at 25 hours after inoculation. Thigh muscle and bone tissue were homogenized, aliquots of serial dilutions were plated on TSA and incubated at 37° C. for 20 hours, and colony counts were obtained to calculate cfu/thigh.

MSSA ATCC 29213 = experiment: Serial passage resistance, MSSA; assay type: cell-based, S. aureus; details: 0.5×MIC, 17 passages
Description: Frozen bacterial stocks (20 μL) of S. aureus ATCC29213 or methicillin-resistant S. aureus (MRSA ATCC 33591) were inoculated into 3 mL cation-adjusted Mueller-Hinton medium and incubated at 37° C. on a shaker platform (250 rpm) overnight. The suspension was diluted to approximately 5×10^5 cfu/mL and inoculated into a polypropylene (Costar) 96-well round bottom plate (90 μL volumes). Compound stock solutions of Compound A and norfloxacin (Sigma Aldrich, St. Louis, Mo.; Catalogue# N9890) were prepared in DMSO and serial two-fold dilutions of compound were made in 0.01% acetic acid, 0.2% bovine serum albumin directly in the wells of the polypropylene plate at 10 μL/well. Final concentrations of Compound A were 50, 25, 12.5, 6.25, 3.13, 1.56, 0.78, 0.39, 0.19, 0.098, 0.049, and 0.024 μg/mL. Final concentration ranges of norfloxacin were 100, 50, 25, 12.5, 6.25, 3.13, 1.56, 0.78, 0.39, 0.19, 0.098, and 0.049 μg/mL. […] All samples were performed in triplicate. Following a 24 hour incubation at 37° C., cell growth was assessed by observing the presence of “acceptable growth”, defined by CLSI as a ≧2 mm button or definite turbidity. The MIC wells were defined as the lowest concentration where acceptable growth was not observed. For serial passage, 50 μL aliquots were taken from 2 of 3 replicate wells at 0.5×MIC and combined into 900 μL of fresh cation-adjusted Mueller-Hinton medium. The OD600 was measured and the cell suspensions were inoculated into polypropylene 96-well round bottom plates (90 μL volumes) at approximately 5×10^5 cfu/mL. Ten μL of compound stock solutions were added previously to the wells to achieve the concentration ranges for each compound described above. All samples were performed in triplicate. The plates were incubated for 24 hours at 37° C. This process was repeated for a total of 17 passages and MIC values were recorded at each passage.

S. aureus (ATCC 13507) = experiment: Rat thigh burden model; assay type: in vivo; details: for reduction of bacterial load in comparison to inoculated controls / reduction relative to inoculum levels at 1 hour post-infection: 10 mg/kg/dose, 20 mg/kg total dose
Description: For each experiment, female 8-9-week old femoral vein cannulated Crl:CD(SD) rats were made neutropenic with cyclophosphamide (150 mg/kg, i.p.) on days 4 and 1 before i.m. inoculation with S. aureus (ATCC 13507). A suspension of S. aureus was prepared from colonies obtained from an overnight culture, placed in PBS, and adjusted to approximately 10^7 cfu/mL with the aid of a spectrophotometer. Each rat was injected 0.2 mL of inoculum into the thigh muscle of the right hind leg. Thighs were harvested at 25 hours after inoculation and processed to determine cfu/thigh. Compound A was given by i.v. bolus injection into a tail vein or 1-hour i.v. infusion, or 4-hour i.v. infusion via the femoral vein cannulae at different time intervals following inoculation. Separate inoculation control groups were included in each experiment, and vancomycin groups were included as comparative agents in the first and second experiments. Each group, including the controls and comparative agent, consisted of 4 rats.

S. aureus ATCC27660 = experiment: Time-kill study; assay type: cell-based
Description: Time-kill studies of Compound A versus E. coli ATCC25922, E. coli (lab strain) D31, and S. aureus ATCC27660 were determined in a standard protocol by measuring the time it takes to reduce the initial inoculums 3 log units. Three ml of cation-adjusted Mueller-Hinton medium was inoculated with 20 μL of frozen bacterial stock and incubated at 37° C. on a shaker platform (250 rpm) overnight. […] Compound A stock solution was prepared at 10 mg/mL in DMSO. Time points were collected and viable bacteria were counted on MH Agar plates after an 18 hour incubation. […] See, FIG. 1A and FIG. 1B.

N=C(N)NCCCCC(=O)Nc1cc(C(F)(F)F)cc(NC(=O)c2cc(C(=O)Nc3cc(C(F)(F)F)cc(NC(=O)CCCCNC(=N)N)c3O[C@H]3CCNC3)ncn2)c1O[C@H]1CCNC1 [Compound A, pyrimidine-4,6-dicarboxylic acid bis-{[3-(5-guanidino-pentanoylamino)-2-((R)-pyrrolidin-3-yloxy)-5-trifluoromethyl-phenyl]-amide}tetrahydrochloride]
bacterial reduction vs inoculated control group (S. aureus (ATCC 13709); 2 mg/kg/dose i.v. bolus at 1 and 5 hours after inoculation): 3.96 logs
bacterial reduction vs inoculated control group (S. aureus (ATCC 13709); 2 mg/kg/dose i.v. bolus at 1 and 9 hours after inoculation): 3.93 logs
static efficacy dose in the thigh burden model (S. aureus (ATCC 13709); mouse): 2 to 4 mg/kg
change in MIC values on serial passage (MSSA ATCC 29213): did not result in any change; also recorded: no change
reduction of bacterial load in comparison to inoculated controls (S. aureus (ATCC 13507); 1 hour i.v. infusions): 3.0 logs
reduction relative to inoculum levels at 1 hour post-infection (S. aureus (ATCC 13507); 1 hour i.v. infusions): ~2.0 logs
reduction of bacterial load in comparison to inoculated controls (S. aureus (ATCC 13507); i.v. bolus): 3.2 logs
reduction relative to inoculum levels at 1 hour post-infection (S. aureus (ATCC 13507); i.v. bolus): approximately 2.2 logs
efficacy relative to vancomycin (S. aureus (ATCC 13507); rat thigh burden): comparable to vancomycin
time to reduction of 3 log10 units in the initial inoculum (S. aureus ATCC27660; 2×MIC): 5 hours
MIC (S. aureus ATCC27660; Staphylococcus aureus, ATCC27660, MIC used in time-kill study): 1 µg/mL
re-growth in the cultures (S. aureus ATCC27660; over 72 hours at 1×MIC): No re-growth
